From patent US5321046A, “Hypocholesterolemic unsymmetrical dithiol ketals” (Bristol-Myers Squibb Company, priority 1992, dated 1994)
Where two headings read alike, the source gives them in different places.

How the values were obtained:
HepG2 cells = assay: HepG2 Cell Culture Model--14C-Acetate Incorporation Assay (cholesterol biosynthesis); type: cell-based; details: Homo sapiens
Protocol: (a) Isolated Hepatocyte cholesterol biosynthesis assay: HepG2 Cell Culture Model--14C-Acetate Incorporation Assay
HepG2 cells obtained from the American Type Culture Collection were routinely passed in RPMI-1640 plus 10% fetal bovine serum (FBS) and were subculture into 35 mm diameter wells for experiments. […] The LDS medium supplement was prepared according to Cham et al., J. Lipid Res., 17: 176-181, (1976). After about 16 hours in LDS containing media, test compounds were added in dimethylsulfoxide vehicle (0.5% v/v final conc.) for the period of time indicated in the data (generally 4 hours). Cholesterol synthesis was then directly determined by the incorporation of 2-14C-acetate (1.8-3.0 mCi/mmol) into digitonin-precipitable sterols essentially as described for the rat hepatocyte method above. Greater than 97% of the radiolabelled sterol isolated by this procedure was cholesterol as judged by HPLC. Percent inhibition was calculated from the average of duplicates or triplicates vs. controls receiving vehicle.

[1] = tested on: hydroxymethylglutaryl coenzyme A reductase (HMGcoA reductase); assay: HMGCo-A reductase suppression; type: cell-based
[2] = In vivo cholesterol biosynthesis in hamsters (plasma lipids); set-up: species or system hamsters (male F1 B)
Protocol: (c) In vivo cholesterol biosynthesis in hamsters was assayed using the following protocol: four groups of hamsters (male F1 B, fed 0.5% cholesterol 10% coconut oil), average weight 120-150 gm, were run in parallel (N=10 per group). The animals were initially fed the atherogenic diet for 20 days to determine their pre-drug plasma lipid levels. They were randomized so that each group had the same average plasma total cholesterol. The three of the four groups were started on their respective drug containing diet (day 0), while the remaining group served as controls.

[3] = HepG2 cells, 14C-acetate incorporation, generally 4 hours, read-out: HepG2 @ 10 μM (inhibition of cholesterol biosynthesis)
[4] = HepG2, read-out: HEPG2 Sterol biosynthesis inhibition @ 10 μM
[5] = plasma, Day 0 (pre-drug), atherogenic diet, N=10 per group

Structure (SMILES)	inhibition at 10 µM (HepG2 cells; [3])	HMGCo-A reductase suppression @ 10 μM [1]	down-regulation of HMGcoA reductase (in words) ([1]; in words)	inhibition at 10 µM (HepG2 cells; [4])	reduction in LDL-cholesterol over control ([2]; F1 B hamsters, over control)	reduction in overall cholesterol over control ([2]; F1 B hamsters, over control)	LDL Cholesterol, Day 0 [2, 5]	Total cholesterol, Day 0 [2, 5]	LDL Cholesterol, Day 21 ([2]; plasma, Day 21, drug containing diet, control 333 ± 137)	Total cholesterol, Day 21 ([2]; plasma, Day 21, drug containing diet, control 407 ± 144)
CC(C)=CCCC(C)=CCCC(C)=CCSC(C)(C)Sc1ccc(F)cc1 [Example 36, 4-Fluoro-1-[[1-methyl-1-[(3,7,11-trimethyl-2,6,10-dodecatrienyl)thio]ethyl]thio]benzene]	20%									
CCOC(=O)C(C)(SCC=C(C)CCC=C(C)CCC=C(C)C)Sc1cc(C)c(O)c(C)c1 (stereo not drawn) [Example 27, Propanoic Acid, 2-[(4-hydroxy-3,5-dimethylphenyl)thio]-2-[(3,7,11-trimethyl-2,6,10-dodecatrienyl)thio]ethyl ester]	79%	51%	down-regulate the key enzyme in the cholesterol biosynthesis	79%						
CC(=O)Oc1ccc(SC(C)(C)SCC=C(C)CCC=C(C)CCC=C(C)C)c(C)c1 [Example 15, 3-Methyl-4-[[1-methyl-1-[(3,7,11-trimethyl-2,6,10-dodecatrienyl)thio]ethyl]thio]phenol acetate]	75%									
CC(C)=CCCC(C)=CCCC(C)=CCSC(C)(C)Sc1ccc(O)cc1 [Example 11, 4-[[1-Methyl-1-[(3,7,11-trimethyl-2,6,10-dodecatrienyl)thio]ethyl]thio]phenol]	63%	37%		63%	-25%	-18%	319 ± 89 mg/dL	399 ± 82 mg/dL	256 ± 85 mg/dL	336 ± 90 mg/dL
